Source: patent US6060481A, “Method for improving insulin sensitivity using an adenosine receptor antagonist” (priority 1999, dated 2000)

Key:
[1] = test system: protein tyrosine phosphatase; experiment: Protein tyrosine phosphatase assay of gastrocnemius fractions and insulin receptor preparations of treated rats; type: in vivo, Zucker rats
Experimental: Approximately 100 mg frozen tissue were homogenized in 5 ml buffer containing 10 mM NaHCO3, (pH 7.4), 250 mM sucrose, 0.1 mg/ml aprotinin, 0.05 mg/ml leupeptin, 1 mM phenylmethysulfonyl fluoride (PMSF), and 5 mM NaN3 (CHB buffer) and then sonicated for 1 min on ice with three 20-sec bursts. The sonicate was centrifuged at 1,200 g for 10 min at 4° C. Three ml of CHB medium was added to the pellet which was then rehomogenized for 1 min and respun. The suspensions of the two pellets were combined, rehomogenized, and respun at 10,000 g for 10 minutes at 4° C. The 10,000 g pellet was discarded and the supernatant was transferred to a cold Ti75 ultracentrifuge tube and spun at 270,000 g for 90 minutes. The supernatant of the high speed centrifugation (cytosol) was used for PTPase assays. The 270,000 g pellet was resuspended in 0.500 ml buffer containing 250 mM sucrose, 20 mM HEPES (pH 7.4), 0.6 M KC1, and 1% Triton X-100. A 27 gauge syringe needle was used to completely solubilize the pellet. The supernatant was spun at 12,000 rpm for 20 min and the resulting supernatant, termed particulate fraction was then dialyzed overnight at 4° C. against 20 mM HEPES (pH 7.2) and 0.1% β-mercaptoethanol. Samples were stored at -70° C. until used for PTPase assays.
Each tube contained 10 μl [^32 P]tyrosine-phosphorylated myelin basic protein (1×10^4 dpm; 2×10^3 dpm/pmol), 10 μl 5X PTP-ase buffer [250 mM HEPES (pH 7.0), 10 mM EDTA, 5 mM DTT], and 1-5 μg muscle fraction protein and water in a total volume of 40 μl. Consumption of substrate (phosphorylated myelin basic protein) was limited to 20%.
One unit of PTPase activity is defined as the amount of enzyme releasing 1 nmol phosphate/min from myelin basic protein.
(§1) PTPase was measured in skeletal muscle cytosolic fractions, particulate fractions, and in partially purified insulin receptors. To assay PTPase activity in partially purified insulin receptors the WGA eluates were dialyzed overnight against 0.1% β-mercaptoethanol and 20 mM HEPES, pH 7.2, to eliminate phosphatase inhibitors.

[2] = Basal postabsorptive glucose kinetics; type: in vivo, Zucker rats; details: for Glucose Concentration / Glucose MCR / Glucose Ra: basal postabsorptive, treated 1 wk
Experimental: In this example, 6-8 week old lean and obese female animals were used. Each group received either vehicle or vehicle plus 1,3-dipropyl-8-(p-acrylic)phenylxanthine (BWA1433) (12 mg/kg every 12 h) for one week prior to the start of the experimental protocol, as described by Xu, et al., Am. […] The vehicle in this case was 10 mg/ml methyl cellulose in H2 O. The final dose of BWA1433 or vehicle was administered approximately 1 h prior to the start of the experimental protocol.
On the day prior to the start of the experimental protocol, animals were anesthetized with an intramuscular injection of ketamine and xylazine (90 and 9 mg/kg body weight, respectively), and sterile surgery was performed to implant catheters in the carotid artery and jugular vein according to the methods taught by Lang et al., Endocrinology, 130: 43-52 (1992). After surgery, animals were housed in individual cages and provided water ad libitum. Animals were fasted overnight.
The following morning, a primed, constant intravenous infusion of [3-^3 H]glucose (high-performance liquid chromatography purified; DuPont-New England Nuclear, Boston, Mass.) was initiated to determine basal glucose kinetics. A 7-μCi bolus injection of labeled glucose was administered followed by a continuous infusion at a rate of 0.083 μCi/min for the next 2 h. Arterial blood samples were collected at 100 and 120 min (0.3 ml each) after the start of the tracer infusion. Blood was collected in heparinized syringes, centrifuged, and the plasma glucose concentration and glucose specific activity were determined on each sample.
Rates of whole body glucose appearance (Ra) and disappearance (Rd) are calculated using the steady-state equations of Steele, Ann. […] The glucose metabolic clearance rate (MCR) is calculated by dividing the glucose Rd by the prevailing glucose concentration.

[3] = biological target: T1, human A3 adenosine receptor (Homo sapiens, UniProt P0DMS8); experiment: Binding constants against cloned and expressed human adenosine receptor subtypes (A3); details: read-out: Binding constant (KD) A3
T1 construct: expressed in transfected cells
T1 sequence (P0DMS8 1-318): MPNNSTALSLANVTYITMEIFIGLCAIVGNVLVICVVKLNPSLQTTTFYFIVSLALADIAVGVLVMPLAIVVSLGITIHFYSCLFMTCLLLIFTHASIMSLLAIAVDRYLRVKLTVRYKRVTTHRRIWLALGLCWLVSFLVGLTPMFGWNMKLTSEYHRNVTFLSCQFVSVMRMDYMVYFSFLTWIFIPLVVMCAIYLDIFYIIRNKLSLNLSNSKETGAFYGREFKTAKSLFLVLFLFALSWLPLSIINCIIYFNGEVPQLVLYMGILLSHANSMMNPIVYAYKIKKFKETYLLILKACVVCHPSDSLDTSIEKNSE

[4] = test system: protein tyrosine phosphatase; experiment: In vitro inclusion of compound in WGA eluates, protein tyrosine phosphatase assay; type: biochemical, Zucker rats; details: 10 μM in vitro in WGA eluates from obese controls
Experimental: Assays were performed at 25° C. using a slight modification of a protocol described by Ahmad and Goldstein, Am. […] Each tube contained 10 μl [^32 P]tyrosine-phosphorylated myelin basic protein (1×10^4 dpm; 2×10^3 dpm/pmol), 10 μl 5X PTP-ase buffer [250 mM HEPES (pH 7.0), 10 mM EDTA, 5 mM DTT], and 1-5 μg muscle fraction protein and water in a total volume of 40 μl. Consumption of substrate (phosphorylated myelin basic protein) was limited to 20%. […] The assay differs from that of Ahmed and Goldstein in that the amount of phosphorylated substrate (myelin basic protein) was lower and its specific activity higher, similar to the skeletal muscle PTPase assay described by Tanowitz, et al., Brain Res., 712:299-306 (1996).
as §1

[5] = biological target: T2, human A2B adenosine receptor (Homo sapiens, UniProt P29275); experiment: Binding constants against cloned and expressed human adenosine receptor subtypes (A2B); details: read-out: Binding constant (KD) A2B
T2 construct: expressed in transfected cells
T2 sequence (P29275 1-332): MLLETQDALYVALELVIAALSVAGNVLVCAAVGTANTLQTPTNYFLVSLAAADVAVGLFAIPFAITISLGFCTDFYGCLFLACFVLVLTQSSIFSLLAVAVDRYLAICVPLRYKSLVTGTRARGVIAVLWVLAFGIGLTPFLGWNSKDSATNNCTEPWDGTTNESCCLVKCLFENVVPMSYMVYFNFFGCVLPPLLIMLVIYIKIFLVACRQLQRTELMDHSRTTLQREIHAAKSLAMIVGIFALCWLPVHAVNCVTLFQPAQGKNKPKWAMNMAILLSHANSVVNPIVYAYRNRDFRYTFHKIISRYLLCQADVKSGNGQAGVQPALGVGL
From the text: Any A2B adenosine receptor antagonist can be used according to the present methods. Methods for determining whether a compound is an A2B adenosine receptor agonist or antagonist involve quantitating its binding affinity to membranes which are known to contain the A2B subtype. The methods for determining whether compounds are specific ligands of different adenosine receptor subtypes will be known by practitioners of the art. […] References cited therein provide more complete descriptions of the procedures used.
In these previous methods, a radioactive compound (DPCPX) known to be highly specific for A1 adenosine receptors and whose KD is published was incubated with isolated fat cell membranes. A1 adenosine receptors are abundant in fat cells and DPCPX's binding to fat cell membranes occurs due to those receptors. […] Human cells which express large amounts of human A2B adenosine receptors are not readily available. Therefore, in order to determine the KD of BWA1433 for the A2B adenosine receptor the cDNA of human A2B adenosine receptor was used to overexpress the A2B adenosine receptor in a mammalian cell line.

[6] = test system: whole body glucose uptake; experiment: Euglycemic hyperinsulinemic clamp, whole body glucose disposal and IMGU; type: in vivo, Zucker rats
Experimental: In this example, 6-8 week old lean and obese female animals were used. Each group received either vehicle or vehicle plus 1,3-dipropyl-8-(p-acrylic)phenylxanthine (BWA1433) (12 mg/kg every 12 h) for one week prior to the start of the experimental protocol, as described by Xu, et al., Am. J. Physiol., 274 (Endocrinol. Metab. 37): E271-E279 (1988). The vehicle in this case was 10 mg/ml methyl cellulose in H2 O. The final dose of BWA1433 or vehicle was administered approximately 1 h prior to the start of the experimental protocol.
After samples were obtained for basal metabolic determinations, a euglycemic hyperinsulinemic clamp was performed. Regular human insulin (Eli Lilly, Indianapolis, Ind.) was infused intravenously at a rate of 100 mU·min^-1 ·kg^-1 for 3 h. This infusion rate has been previously determined to result in steady-state plasma insulin concentrations of approximately 5,000 uU/ml, as reported in Lang, et al., Endocrinology, 130:43-52 (1996); Lang, Am. J. Physiol., 263 (Endocrinol. Metab. 26): E703-E711 (1992); and Lang, et al., Metabolism, 39:1096-1107 (1990). […] Tritiated glucose was not infused during the hyperinsulinemic clamp, because preliminary studies indicate that this insulin infusion rate completely suppresses endogenous glucose appearance in both obese and lean animals.
During the hyperinsulinemic clamp, blood glucose concentrations were determined at 10-min intervals using the YSI glucose analyzer (Yellow Springs, Ohio). Glucose specific activity was determined on neutralized supernatants of deproteinized plasma as taught by Lang, Am. J. Physiol, 263 (Endocrinol. Metab. 26): E703-D711 (1992). Tissue samples (600-900 mg wet wt) were immersed in ice-cold 0.5 N PCA, homogenized, and centrifuged. The concentration of phosphorylated 2-DG in tissues was calculated as the difference between total ^14 C-radioactivity of the neutral extract and the ^14 C-radioactivity remaining after Somogyi treatment as described in detail by Lang CH, Dobrescu C, and Meszaros K., Metabolism 39:1096-1107 (1990).
Rates of whole body glucose appearance (Ra) and disappearance (Rd) are calculated using the steady-state equations of Steele, Ann. NY Acad. Sci., 82:420-430 (1959). The glucose metabolic clearance rate (MCR) is calculated by dividing the glucose Rd by the prevailing glucose concentration. Since the prevailing insulin levels during the hyperinsulinemic clamp completely suppress endogenous glucose production, the rate of whole body glucose disposal equals the exogenous glucose infusion rate. The increment in insulin-stimulated glucose uptake (IMGU) for each animals is calculated by subtracting the basal endogenous glucose Ra from the measured rate of glucose disposal determined during the last 40 min of the clamp. In vivo glucose uptake for each tissue examined is calculated based on the accumulation of phosphorylated 2-DG by a respective tissue, the integrated 2-DG:glucose ratio in the plasma during the 40-min labeling period, and the lumped constant as described by Lang, Endocrinology, 128:645-653 (1991).

With CCCn1c(=O)c2[nH]c(-c3ccc(C=CC(=O)O)cc3)nc2n(CCC)c1=O [BWA1433, 1,3-dipropyl-8-(p-acrylic)phenylxanthine] the “Phosphatase activity in cytosolic fractions of gastrocnemius” value ([1]; between groups (lean, obese, ± treatment)) was “No differences”, the “PTPase activity in particulate fraction of gastrocnemius” value ([1]; obese Zucker rats) was “reduction” and the “Reduction of phosphatase activity in partially-purified insulin receptor preparations compared to untreated controls” value ([1]; obese rats) was 27%. For the same compound, the “Alterations in any parameter of glucose metabolism” value ([2]; basal conditions, either group (lean, obese)) was “did not produce detectable alterations”, the “Glucose Concentration” value ([2]; lean rats) was 5.1 ± 0.2 mM and the “Glucose MCR” value ([2]; lean rats) was 7.1 ± 0.8 ml · min^-1 .multidot. For the same compound, the “Glucose Ra” value ([2]; lean rats) was 36.8 ± 2.9 μmol^-1 · min .multid, the “Glucose Concentration” value ([2]; obese rats) was 4.5 ± 0.2 mM and the “Glucose MCR” value ([2]; obese rats) was 8.3 ± 0.8 ml · min^-1 .multidot. For the same compound, the “Glucose Ra” value ([2]; obese rats) was 37.5 ± 4.8 μmol^-1 · min .multid, the Kd [3] was 30 nM and the “Effect on protein tyrosine phosphatase activity” value [4] was “no effect”. For the same compound, the Kd [5] was 60 nM, the “Change in IMGU” value ([6]; lean Zucker rats) was “No change” and the “Decrease in whole body glucose disposal” value ([6]; lean animals, hyperinsulinemic clamp) was 16%. For the same compound, the “Average plasma glucose concentration during final hour of clamp” value ([6]; lean rats) was 5.4 ± 0.1 mM, the “Average plasma glucose concentration during final hour of clamp” value ([6]; obese rats) was 5.5 ± 0.1 mM and the “Increase in IMGU compared to vehicle-treated obese animals” value ([6]; obese rats) was “more than 6 fold”. For the same compound, the “Increase in rate of whole body glucose uptake compared to untreated obese rats” value ([6]; obese rats, hyperinsulinemic clamp) was 88% and the “Whole body glucose uptake rate lower than in lean control animals” value ([6]; treated obese animals versus lean control) was “approximately 50%”.
